Test results from PubChem BioAssay AID2060602 (Molecular Pharmacology Branch, DTP, NCI, 2025).
pIC50: −log10 of the molar value. Where “and” joins values, the source holds several entries; their conditions need not be identical. Equal entries are not always repeated.

System: 648629-189-R-J1-PDC complex spheroids viability
Assay: Anticancer human tumor 648629-189-R-J1-PDC patient-derived bladder carcinoma cell line growth inhibition [CLK]
Settings: for viability, T/C: stronger effect = lower value
Procedure, shortened: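 Patient-derived tumor cells grown as complex spheroids with HUVEC endothelial cells and mesenchymal stem cells, treated with drug combinations. Concentrations descend in half-log steps from near clinical Cmax, or from 10 microM if Cmax unknown.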

[1] = curve of first compound, second compound 0.0316 µM
[2] = curve of first compound, second compound 0.1 µM
[3] = curve of first compound, second compound 0.316 µM
[4] = curve of first compound, second compound 1 µM
[5] = curve of first compound, second compound 3.16 µM
[6] = curve of first compound, second compound 10 µM
[7] = second compound 0.0316 µM, first compound 0.0316 µM
[8] = second compound 0.0316 µM, first compound 0.1 µM
[9] = second compound 0.0316 µM, first compound 0.316 µM
[10] = second compound 0.0316 µM, first compound 1 µM
[11] = second compound 0.0316 µM, first compound 3.16 µM
[12] = second compound 0.0316 µM, first compound 10 µM
[13] = second compound 0.1 µM, first compound 0.0316 µM
[14] = second compound 0.1 µM, first compound 0.1 µM
[15] = second compound 0.1 µM, first compound 0.316 µM
[16] = second compound 0.1 µM, first compound 1 µM
[17] = second compound 0.1 µM, first compound 3.16 µM
[18] = second compound 0.1 µM, first compound 10 µM
[19] = second compound 0.316 µM, first compound 0.0316 µM
[20] = second compound 0.316 µM, first compound 0.1 µM
[21] = second compound 0.316 µM, first compound 0.316 µM
[22] = second compound 0.316 µM, first compound 1 µM
[23] = second compound 0.316 µM, first compound 3.16 µM
[24] = second compound 0.316 µM, first compound 10 µM
[25] = second compound 1 µM, first compound 0.0316 µM
[26] = second compound 1 µM, first compound 0.1 µM
[27] = second compound 1 µM, first compound 0.316 µM
[28] = second compound 1 µM, first compound 1 µM
[29] = second compound 1 µM, first compound 3.16 µM
[30] = second compound 1 µM, first compound 10 µM
[31] = second compound 3.16 µM, first compound 0.0316 µM
[32] = second compound 3.16 µM, first compound 0.1 µM
[33] = second compound 3.16 µM, first compound 0.316 µM
[34] = second compound 3.16 µM, first compound 1 µM
[35] = second compound 3.16 µM, first compound 3.16 µM
[36] = second compound 3.16 µM, first compound 10 µM
[37] = second compound 10 µM, first compound 0.0316 µM
[38] = second compound 10 µM, first compound 0.1 µM
[39] = second compound 10 µM, first compound 0.316 µM
[40] = second compound 10 µM, first compound 1 µM
[41] = second compound 10 µM, first compound 3.16 µM
[42] = second compound 10 µM, first compound 10 µM
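Wherever viability, T/C is given: drug exposure lasted seven days before viability readout; 100% = DMSO vehicle control wells.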

Q: For `C=CC(=O)N1CCN(c2nc(=O)n(-c3c(C)ccnc3C(C)C)c3nc(-c4c(O)cccc4F)c(F)cc23)C(C)C1` (stereo not drawn), which viability, T/C (compound 0.0316 µM) is on record?
A: Its viability, T/C is 84.4% and 97.4%.

Q: And the viability, T/C (compound 0.1 µM)?
A: The viability, T/C was 95.1% and 95.9%.

Q: What about the viability, T/C (compound 0.316 µM) of the same compound?
A: Its viability, T/C is 99.2% and 102%.

Q: What about the viability, T/C (compound 1 µM) of the same compound?
A: The viability, T/C was 106% and 98.1%.

Q: What about the viability, T/C (compound 3.16 µM) of the same compound?
A: The viability, T/C was 104% and 96.5%.

Q: What about the viability, T/C (compound 10 µM) of the same compound?
A: The viability, T/C was 89.5% and 94.4%.

Q: What about the pIC50 (curve of compound) of the same compound?
A: Its pIC50 is less than 5.00.

Q: Which results are given for `O=C(c1cc(Cc2n[nH]c(=O)c3ccccc23)ccc1F)N1CCN(C(=O)C2CC2)CC1`?
A: viability, T/C (compound 0.0316 µM): 109% and 101%; viability, T/C (compound 0.1 µM): 90.8% and 97.7%; viability, T/C (compound 0.316 µM): 92% and 108%; viability, T/C (compound 1 µM): 79.5% and 103%; viability, T/C (compound 3.16 µM): 75.7% and 84.3%; viability, T/C (compound 10 µM): 57.9% and 71.5%; pIC50 (curve of compound): < 5.00

Q: `COC1C=CCC(C)C(C)S(=O)(=O)NC(=O)c2ccc3c(c2)N(CC2CCC21)CC1(CCCc2cc(Cl)ccc21)CO3` (stereo not drawn) + CN1CCN(c2cc(C(=O)Nc3cc4cc(-c5cnn(C)c5)ccc4cn3)ccn2)CC1 was tested. Which pIC50 [1] did it give?
A: Its pIC50 is 5.68.

Q: And the pIC50 [2]?
A: Its pIC50 is 5.68.

Q: And the pIC50 [3]?
A: Its pIC50 is greater than 7.50.

Q: What about the pIC50 [4] of the same compound?
A: Its pIC50 is greater than 7.50.

Q: And the pIC50 [5]?
A: The pIC50 was greater than 7.50.

Q: What about the pIC50 [6] of the same compound?
A: The pIC50 was greater than 7.50.

Q: And the viability, T/C [7]?
A: The viability, T/C was 106%.

Q: And the viability, T/C [8]?
A: The viability, T/C was 99.9%.

Q: What about the viability, T/C [9] of the same compound?
A: The viability, T/C was 93.2%.

Q: And the viability, T/C [10]?
A: The viability, T/C was 82%.

Q: And the viability, T/C [11]?
A: The viability, T/C was 32.4%.

Q: What about the viability, T/C [12] of the same compound?
A: The viability, T/C was 3.21%.

Q: And the viability, T/C [13]?
A: The viability, T/C was 114%.

Q: And the viability, T/C [14]?
A: Its viability, T/C is 94.4%.

Q: And the viability, T/C [15]?
A: Its viability, T/C is 92.4%.

Q: What about the viability, T/C [16] of the same compound?
A: The viability, T/C was 80.1%.

Q: And the viability, T/C [17]?
A: The viability, T/C was 33.3%.

Q: And the viability, T/C [18]?
A: The viability, T/C was 3.02%.

Q: What about the viability, T/C [19] of the same compound?
A: The viability, T/C was 50.2%.

Q: What about the viability, T/C [20] of the same compound?
A: Its viability, T/C is 46.9%.

Q: What about the viability, T/C [21] of the same compound?
A: The viability, T/C was 37.9%.

Q: What about the viability, T/C [22] of the same compound?
A: Its viability, T/C is 14.4%.

Q: What about the viability, T/C [23] of the same compound?
A: Its viability, T/C is 4.72%.

Q: And the viability, T/C [24]?
A: The viability, T/C was 1.78%.

Q: What about the viability, T/C [25] of the same compound?
A: Its viability, T/C is 0.38%.

Q: What about the viability, T/C [26] of the same compound?
A: Its viability, T/C is 0.34%.

Q: And the viability, T/C [27]?
A: Its viability, T/C is 0.42%.

Q: And the viability, T/C [28]?
A: The viability, T/C was 0.15%.

Q: And the viability, T/C [29]?
A: Its viability, T/C is 0.13%.

Q: What about the viability, T/C [30] of the same compound?
A: Its viability, T/C is 0.08%.

Q: What about the viability, T/C [31] of the same compound?
A: The viability, T/C was 0.13%.

Q: And the viability, T/C [32]?
A: Its viability, T/C is 0.12%.

Q: What about the viability, T/C [33] of the same compound?
A: The viability, T/C was 0.16%.

Q: And the viability, T/C [34]?
A: The viability, T/C was 0.14%.

Q: And the viability, T/C [35]?
A: The viability, T/C was 0.43%.

Q: What about the viability, T/C [36] of the same compound?
A: Its viability, T/C is 0.12%.

Q: And the viability, T/C [37]?
A: The viability, T/C was 0.17%.

Q: And the viability, T/C [38]?
A: The viability, T/C was 0.13%.

Q: And the viability, T/C [39]?
A: The viability, T/C was 0.2%.

Q: What about the viability, T/C [40] of the same compound?
A: Its viability, T/C is 0.21%.

Q: What about the viability, T/C [41] of the same compound?
A: Its viability, T/C is 0.24%.

Q: What about the viability, T/C [42] of the same compound?
A: The viability, T/C was 0.51%.

Q: How did the pIC50 [1] turn out when `C#Cc1c(F)ccc2cc(O)cc(-c3ncc4c(N5CC6CCC(C5)N6)nc(OCC56CCCN5CC(F)C6)nc4c3F)c12` (stereo not drawn) + CNC(=O)c1ccc(Nc2nc(OC3CCCC3)c3c(-c4ccc5nc(C)oc5c4)c[nH]c3n2)c(OC)c1 was run?
A: Its pIC50 is less than 5.00.

Q: What about the pIC50 [2] of the same compound?
A: The pIC50 was 5.07.

Q: What about the pIC50 [3] of the same compound?
A: Its pIC50 is greater than 7.50.

Q: And the pIC50 [4]?
A: Its pIC50 is greater than 7.50.

Q: What about the pIC50 [5] of the same compound?
A: Its pIC50 is greater than 7.50.

Q: What about the pIC50 [6] of the same compound?
A: The pIC50 was greater than 7.50.

Q: What about the viability, T/C [7] of the same compound?
A: The viability, T/C was 120%.

Q: And the viability, T/C [8]?
A: Its viability, T/C is 88.4%.

Q: And the viability, T/C [9]?
A: The viability, T/C was 108%.

Q: And the viability, T/C [10]?
A: Its viability, T/C is 105%.

Q: And the viability, T/C [11]?
A: Its viability, T/C is 100%.

Q: And the viability, T/C [12]?
A: Its viability, T/C is 91.4%.

Q: And the viability, T/C [13]?
A: The viability, T/C was 83.2%.

Q: And the viability, T/C [14]?
A: The viability, T/C was 76.9%.

Q: What about the viability, T/C [15] of the same compound?
A: Its viability, T/C is 84.1%.

Q: What about the viability, T/C [16] of the same compound?
A: The viability, T/C was 79.4%.

Q: And the viability, T/C [17]?
A: The viability, T/C was 61.8%.

Q: And the viability, T/C [18]?
A: The viability, T/C was 48%.

Q: And the viability, T/C [19]?
A: The viability, T/C was 28.1%.

Q: What about the viability, T/C [20] of the same compound?
A: The viability, T/C was 25.4%.

Q: What about the viability, T/C [21] of the same compound?
A: The viability, T/C was 25.1%.

Q: What about the viability, T/C [22] of the same compound?
A: The viability, T/C was 23%.

Q: And the viability, T/C [23]?
A: Its viability, T/C is 19.3%.

Q: And the viability, T/C [24]?
A: Its viability, T/C is 22%.

Q: And the viability, T/C [25]?
A: Its viability, T/C is 18.7%.

Q: What about the viability, T/C [26] of the same compound?
A: Its viability, T/C is 20.2%.

Q: What about the viability, T/C [27] of the same compound?
A: Its viability, T/C is 15.5%.

Q: What about the viability, T/C [28] of the same compound?
A: Its viability, T/C is 18.6%.

Q: What about the viability, T/C [29] of the same compound?
A: The viability, T/C was 18.2%.

Q: And the viability, T/C [30]?
A: The viability, T/C was 19.4%.

Q: What about the viability, T/C [31] of the same compound?
A: The viability, T/C was 17.2%.

Q: And the viability, T/C [32]?
A: The viability, T/C was 17.6%.

Q: And the viability, T/C [33]?
A: Its viability, T/C is 15.4%.

Q: What about the viability, T/C [34] of the same compound?
A: The viability, T/C was 16.9%.

Q: What about the viability, T/C [35] of the same compound?
A: The viability, T/C was 17.6%.

Q: What about the viability, T/C [36] of the same compound?
A: The viability, T/C was 17.9%.

Q: What about the viability, T/C [37] of the same compound?
A: Its viability, T/C is 20.1%.

Q: And the viability, T/C [38]?
A: Its viability, T/C is 18.5%.

Q: What about the viability, T/C [39] of the same compound?
A: Its viability, T/C is 18%.

Q: And the viability, T/C [40]?
A: The viability, T/C was 17%.

Q: And the viability, T/C [41]?
A: Its viability, T/C is 21.5%.

Q: And the viability, T/C [42]?
A: The viability, T/C was 16.6%.
